Data on 14 compounds can be found in patent US10308615B2, “Heterocyclic compounds as inhibitors of Vanin-1 enzyme” (Pfizer Inc., priority 2015, dated 2019).

One may read the IC50 as the concentration needed to halve the response being measured.

Test [1] concerns the target T1, human vanin-1 (Homo sapiens (Human), UniProt O95497). Briefly: Human Vanin-1 Enzyme Assay 1. It counts as biochemical. Particulars: 25 pM human vanin-1, 50 uM pantetheine 7-amino-4-trifluoromethylcoumarin, 30 min preincubation, 60 min. An outline of the steps:
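Purified His6/FLAG-tagged extracellular domain of human vanin-1, secreted from CHO cells, at 25 pM final in 50 mM Tris-HCl pH 8.0, 50 mM KCl, 0.005% Brij-35, 1.6 mM cysteamine, 0.5% DMSO. Inhibitor preincubated 30 min at room temperature; 50 uM pantetheine-AFC substrate, 60 min, fluorescence at 405/510 nm; 11-point four-fold dilution series.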

The target of test [2] is T1, human vanin-1. Briefly: Human Vanin-1 Enzyme Assay 2. The test is classed as biochemical. Particulars: 1 nM human vanin-1, 10 uM substrate, 45 min. An outline of the steps: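 Purified CHO-expressed His/FLAG-tagged human vanin-1 extracellular domain (1 nM) cleaved pantetheine-AMC-CF3 substrate (10 uM) in pH 8.0 Tris buffer with 1.5 mM cysteamine and 1% DMSO. Fluorescence (ex 405/em 505 nm) was read after 45 min, over an 11-point half-log inhibitor series.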

The test system of test [3] is DSS-induced colitis. Briefly: DSS (Dextran Sodium Sulfate)-induced colitis mouse model of IBD. It counts as in vivo, mice. The procedure:
Induced Colitis Mouse Model Methods
Example 1 along with sulfasalazine was evaluated in DSS (Dextran Sodium Sulfate) —induced colitis mouse model of IBD. Experimental colitis was induced in healthy young female BALB/C mice by providing 4% DSS; molecular weight 36,000-50,000 (wt/vol) in drinking water ad-libitium for seven days followed by water alone for another seven days. At the commencement of the study, mice were between 7-8 weeks of age, weighing 18-20 g. All the mice were obtained from The Jackson Laboratory, Bar Harbor, Me. 04609 USA. The test articles Example 1 and vehicle were administered subcutaneously (sc) once a day beginning day −1 and continued till day 14. The positive control, Sulfasalazine was dosed orally (po) once a day beginning day 5 and continued till day 14 (Table 2). The body weights were recorded prior to dosing and daily thereafter for fourteen days. Clinical assessments of the mice were performed every other day beginning day 5. The clinical assessment includes body weight, stool consistency and the presence of blood in the stools and scored accordingly to the Table-3. At the end of the study mice were sacrificed using CO2 asphyxiation and colon from the colocecal junction to the anus was removed, washed and cleaned of all fecal matter using PBS, measured and weighed. The data are presented as the mean±standard error (SEM). Data were analyzed using two-way ANOVA using Bonferroni post-test. groups were considered significant at p<0.05.

The target of test [4] is T1, human vanin-1. Briefly: Human Vanin-1 Enzyme Assay 3. The test is classed as biochemical. As to conditions: 2 nM human vanin-1, 10 uM substrate, 15 min. An outline of the steps:
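His/FLAG-tagged extracellular domain of human vanin-1 from CHO cells, used at 2 nM final, with 10 uM pantetheine-AFC substrate. Buffer: 50 mM Tris-HCl pH 8.0, 50 mM KCl, 0.005% Brij-35, 1.5 mM cysteamine, 1% DMSO. 15 min at room temperature; fluorescence read at 405/505 nm across an 11-point 2-fold dilution series.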

Setting [5] is: 50 mg/kg sc QD days -1-14, 4% DSS, female BALB/C mice.

T1 sequence (O95497 22-491): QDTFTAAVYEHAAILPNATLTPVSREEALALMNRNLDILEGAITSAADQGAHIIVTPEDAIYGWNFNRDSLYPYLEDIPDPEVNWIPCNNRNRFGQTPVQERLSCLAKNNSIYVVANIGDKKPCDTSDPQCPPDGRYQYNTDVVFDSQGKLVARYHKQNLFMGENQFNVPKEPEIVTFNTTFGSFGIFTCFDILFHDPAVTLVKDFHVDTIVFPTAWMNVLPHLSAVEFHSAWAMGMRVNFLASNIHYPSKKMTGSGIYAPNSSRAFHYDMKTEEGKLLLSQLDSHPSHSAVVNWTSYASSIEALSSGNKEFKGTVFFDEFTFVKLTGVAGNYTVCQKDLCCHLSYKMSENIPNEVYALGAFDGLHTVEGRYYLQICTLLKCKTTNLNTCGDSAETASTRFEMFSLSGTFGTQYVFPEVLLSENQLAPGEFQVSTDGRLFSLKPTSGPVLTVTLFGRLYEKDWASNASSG

As to `N#Cc1cccc(C(=O)c2cnc(NC3(c4cncnc4)CC3)nc2)c1` [Example 1, 3-[(2-{[1-(pyrimidin-5-yl)cyclopropyl]amino}pyrimidin-5-yl)carbonyl]benzonitrile], it took 4.1 nM to reach half-maximal inhibition in test [1] (IC50). The compound further yielded a concentration for half-maximal inhibition (IC50) in test [2] of 7 nM. Moreover, in test [3] (setting [5]), the “Disease Activity Index (DAI)” value is reported as “mark improvement”, the colon length entry was “mark improvement” and the “loss of body weight” value is listed as “mark improvement”.
Take `N#Cc1cccc(C(=O)c2cnc(NCc3ccnnc3)nc2)c1` [Example 112, 3-({2-[(pyridazin-4-ylmethyl)amino]pyrimidin-5-yl}carbonyl) benzonitrile]: the IC50 in test [1] was 5570 nM; in test [4], 1870 nM; in test [2] it was 856 nM.
As to `N#Cc1cccc(CNc2ncc(C(=O)c3ccccc3)cn2)c1` [Example 113, 3-{[(5-benzoylpyrimidin-2-yl)amino]methyl} benzonitrile], the IC50 in test [1] is 872 nM; in test [4], 259 nM; in test [2], 334 nM.
In the case of `O=C(c1ccccc1)c1cnc(NC2(c3cccnc3)CC2)nc1` [Example 114, phenyl(2-{[1-(pyridin-3-yl)cyclopropyl]amino}pyrimidin-5-yl)methanone], the half-inhibitory concentration (IC50) in test [1] was found to be 380 nM; in test [4], 170 nM; in test [2] it was 254 nM.
On the same counts, the results for `O=C(c1ccccc1)c1cnc(NCc2cccnn2)nc1` [Example 115, phenyl{2-[(pyridazin-3-ylmethyl)amino]pyrimidin-5-yl}methanone] are 1400 nM, 806 nM and 1510 nM.
Taken in the same sequence, the figures for `O=C(c1ccccc1)c1cnc(NCc2cnccn2)nc1` [Example 116, phenyl{2-[(pyrazin-2-ylmethyl)amino]pyrimidin-5-yl}methanone] were 419 nM, 321 nM and 561 nM.
Take `N#Cc1cccc(C(=O)c2cnc(NCc3cnccn3)nc2)c1` [Example 117, 3-({2-[(pyrazin-2-ylmethyl)amino]pyrimidin-5-yl}carbonyl) benzonitrile]: the values for the IC50 in test [1], in test [4] and in test [2] were 50.5 nM, 18.1 nM and 31.8 nM, respectively.
Taken in the same sequence, the figures for `N#Cc1cccc(C(=O)c2cnc(NCc3cccnc3)nc2)c1` [Example 118, 3-({2-[(pyridin-3-ylmethyl)amino]pyrimidin-5-yl}carbonyl) benzonitrile] were 4 nM, 4.6 nM and 11.2 nM.
Taken in the same sequence, the figures for `N#Cc1cccc(C(=O)c2cnc(NCc3cncnc3)nc2)c1` [Example 120, 3-({2-[(pyrimidin-5-ylmethyl)amino]pyrimidin-5-yl}carbonyl) benzonitrile] were 36 nM, 16.6 nM and 37.8 nM.
With `CC(C)(Nc1ncc(C(=O)c2cccc(C(F)(F)F)c2)cn1)c1ccccc1` [Example 121, {2-[(2-phenylpropan-2-yl)amino]pyrimidin-5-yl}[3-(trifluoromethyl)phenyl]methanone], the IC50 came to 32.3 nM in test [1], 9.1 nM in test [4] and 50.4 nM in test [2].
With `CC(C)(Nc1ncc(C(=O)c2ccc3c(c2)OCCO3)cn1)c1ccccc1` [Example 124, 2,3-dihydro-1,4-benzodioxin-6-yl{2-[(2-phenylpropan-2-yl)amino]pyrimidin-5-yl}methanone], the concentration for half-maximal inhibition (IC50) in test [1] turned out to be 526 nM; in test [4] it was 223 nM; in test [2], 798 nM.
For the compound `CS(=O)(=O)c1cccc(C(=O)c2cnc(NCc3ccc(C#N)cc3)nc2)c1` [Example 126, 4-[({5-[3-(methylsulfonyl)benzoyl]pyrimidin-2-yl}amino)methyl] benzonitrile], the figures for the IC50 in test [1], in test [4] and in test [2] were 28.2 nM, 40.6 nM and 44 nM, respectively.
Take `O=C(c1cnc(NCc2cccnc2)nc1)c1cc(F)cc(C(F)(F)F)c1` [Example 128, [3-fluoro-5-(trifluoromethyl)phenyl]{2-[(pyridin-3-ylmethyl)amino]pyrimidin-5-yl}methanone]: the values for the IC50 in test [1], in test [4] and in test [2] were 38.1 nM, 43.5 nM and 38.9 nM, respectively.
With `O=C(O)c1cc(/N=N/c2ccc(S(=O)(=O)Nc3ccccn3)cc2)ccc1O` [Sulfasalazine, reference compound], the “improvement in the colitis (FIG. 1-3)” value in test [3] (100 mg/kg po QD days 5-14, positive control) is reported as “improvement in the colitis”.
